The target in this test is T1, human OX2R (Homo sapiens, UniProt O43614).
T1 construct: expressed in transfected cells
T1 sequence (O43614 1-444): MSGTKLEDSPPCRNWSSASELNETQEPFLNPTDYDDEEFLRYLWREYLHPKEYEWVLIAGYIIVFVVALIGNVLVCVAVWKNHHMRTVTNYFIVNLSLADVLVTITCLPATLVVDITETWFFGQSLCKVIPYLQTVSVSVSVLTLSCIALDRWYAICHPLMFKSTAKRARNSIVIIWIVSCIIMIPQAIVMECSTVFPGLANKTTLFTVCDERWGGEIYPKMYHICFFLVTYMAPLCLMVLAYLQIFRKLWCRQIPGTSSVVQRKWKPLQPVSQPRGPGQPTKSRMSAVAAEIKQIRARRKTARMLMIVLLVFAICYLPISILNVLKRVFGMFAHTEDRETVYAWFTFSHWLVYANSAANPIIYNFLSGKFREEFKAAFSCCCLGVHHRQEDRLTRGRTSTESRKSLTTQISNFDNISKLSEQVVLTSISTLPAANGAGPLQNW
As to the kind of experiment: Measurement of OX2R agonist activity (intracellular calcium concentration change, Fluo4-AM, FDSS 7000). The test is classed as cell-based. As to conditions: compound concentration 10 μM; human OX2R-expressing CHO-K1 cells; 1 μM human orexin A peptide = 100%, medium alone = 0%. An excerpt:
The following abbreviations in the description, the figures and the tables have the following meanings, respectively. • AZADOL (registered trademark): 2-Hydroxy-2-azaadamantane • Boc2O: di-tert-butyl dicarbonate • DIPEA: N,N-diisopropylethylamine • DCM: dichloromethane • DMAP: 4-dimethylaminopyridine • DMF: N,N-dimethylformamide • DMSO: dimethylsulfoxide • Deoxo-Fluor: bis(2-methoxyethyl)-aminosulfur trifluoride • HATU: O-(7-azabenzotriazol-1-yl)-N,N,N′,N′-tetramethyluronium hexafluorophosphate • LDA: lithium diisopropylamide • MeCN: acetonitrile • Me4tBuXPhos: 2-di-tert-butylphosphino-3,4,5,6-tetramethyl-2′,4′,6′-triisopropyl-1,1′-biphenyl • MTBE: methyl tert-butyl ether • NMP: N-methylpyrrolidone • PdCl2(PPh3)2: dichlorobis(triphenylphosphine)palladium(II) • Pd(dba)2: bis(dibenzylideneacetone)palladium(0) • Pd2(dba)3: tris(dibenzylideneacetone)dipalladium(0) • Pd(dppf)Cl2: [1,1′-bis(diphenylphosphino)ferrocene]dichloropalladium(II) • Pd(PPh3)4: tetrakis(triphenylphosphine)palladium(0) • TEA: triethylamine • TFA: trifluoroacetic acid • THF: tetrahydrofuran • Xphos: 2-dicyclohexylphosphino-2′,4′,6′-triisopropylbiphenyl • Xphos Pd G3: (2-dicyclohexylphosphino-2′,4′,6′-triisopropyl-1,1′-biphenyl)[2-(2′-amino-1,1′-biphenyl)]palladium(II) methanesulfonic acid salt • 10% Pd/C: Palladium 10% on Carbon (wetted with ca. 55% water) • APS: aminopropylated silica gel • ODS: octadecyl-silylated silica gel • Method A: column chromatography with an aminopropylated silica gel column followed by a silica gel column • Chiral preparative column chromatography: chiral preparative column chromatography using YMC CHIRALART Cellulose-SB • Ref. No.: Reference Example Number • Str.: structural formula • Ex. No.: Example Number • Phys. data: physical data • ^1H-NMR: hydrogen nuclear magnetic resonance spectrum • CDCl3: chloroform-d1 • MS: mass spectrometry (The measured values in the tables were measured by electrospray ionization or multiionization using electrospray ionization-atmospheric pressure chemical ionization.) • Act.: activation rate of test substance at a compound concentration of 10 μM calculated by setting the fluorescence intensity obtained when human orexin A peptide was added at a concentration of 1 μM as 100% and the fluorescence intensity obtained when the medium alone was added as 0% • CHO: Chinese hamster ovary • HEPES: 2-[4-(2-hydroxyethyl)-1-piperazinyl]ethanesulfonic acid
A human OX2R sequence (Accession No. NM_001526.4) was inserted into the multiple cloning site of pcDNA3.4 (Life Technologies Japan Ltd.) to clone a plasmid vector for human OX2R expression. The plasmid was introduced into CHO-K1 cells using Lipofectamine 2000 (Life Technologies Japan Ltd.). Two days later, the transgenic CHO-K1 cells were passaged into 175T flasks and cultured selectively for 6 days. As a selection medium, Ham's F-12 Nutrient Mix (Life Technologies Japan Ltd.), containing Geneticin (registered trademark) (Life Technologies Japan Ltd.) at a final concentration of 1 mg/mL and inactivated fetal bovine serum (Biowest) at a final concentration of 10%, was used. After the selective culture, the cells were reseeded into 96-well plates, and a human OX2R-expressing cell line was obtained by limiting dilution.
The agonist effects of test substances on human OX2R were evaluated using the intracellular calcium concentration-change upon stimulation as an indicator. A day before measurement of the intracellular calcium concentrations, human OX2R-expressing cells suspended in a medium were seeded into 384-well plates at 5×10^3 cells/50 μL/well and cultured overnight in an incubator set at 37° C. and 5% CO2. After incubation, the medium was removed and replaced with 20 μL of a loading buffer. […]
Turning to `CO[C@H]1CCN(C(=O)[C@@]2(Cc3cccc(-c4ccccc4)c3)CC[C@H](NS(C)(=O)=O)C2)C1` (relative stereo) [Example 70], the “Act. (%): activation rate of test substance” value (“Act. (%): activation rate” below) was 27%. For the molecule `CS(=O)(=O)N[C@H]1CC[C@](Cc2cccc(-c3ccccc3)c2)(C(=O)N2CCCC2C(F)(F)F)C1` (relative stereo) [Example 71, N-((1S*,3R*)-3-([1,1′-Biphenyl]-3-ylmethyl)-3-(2-(trifluoromethyl)pyrrolidine-1-carbonyl)cyclopentyl)methanesulfonamide], the “Act. (%): activation rate” value is on record as 41%. As to `CS(=O)(=O)N[C@H]1CC[C@](Cc2cccc(-c3ccccc3)c2)(C(N)=O)C1` (relative stereo) [Example 72, (1R*,3S*)-1-([1,1′-Biphenyl]-3-ylmethyl)-3-(methylsulfonamido)cyclopentane-1-carboxamide], the “Act. (%): activation rate” value came to 23%. Take `CS(=O)(=O)N[C@H]1CC[C@](Cc2cccc(-c3ccccc3)c2)(C(=O)NCCO)C1` (relative stereo) [Example 73, (1R*,3S*)-1-([1,1′-Biphenyl]-3-ylmethyl)-N-(2-hydroxyethyl)-3-(methylsulfonamido)cyclopentane-1-carboxamide]: the “Act. (%): activation rate” value is 36%.

Turning to `CS(=O)(=O)N[C@H]1CC[C@](Cc2cccc(-c3ccccc3)c2)(C(=O)NCC(F)(F)F)C1` (relative stereo) [Example 74, (1R*,3S*)-1-([1,1′-Biphenyl]-3-ylmethyl)-3-(methylsulfonamido)-N-(2,2,2-trifluoroethyl)cyclopentane-1-carboxamide], the “Act. (%): activation rate” value was 33%. As to `CS(=O)(=O)N[C@H]1CC[C@](Cc2cccc(-c3ccccc3)c2)(C(=O)N2CCC(F)(F)C2)C1` (relative stereo) [Example 75], the “Act. (%): activation rate” value is on record as 23%. For `CON(C)C(=O)C1(Cc2cccc(-c3ncccn3)c2)CCC(NS(C)(=O)=O)C1` (single isomer, unassigned) [Example 46, N-Methoxy-N-methyl-3-(methylsulfonamido)-1-(3-(pyrimidin-2-yl)benzyl)cyclopentane-1-carboxamide] the value was 93%. With `CON(C)C(=O)C1(Cc2cccc(-c3ncccn3)c2)CCC(NS(C)(=O)=O)C1` (single isomer, unassigned) [Example 47, N-Methoxy-N-methyl-3-(methylsulfonamido)-1-(3-(pyrimidin-2-yl)benzyl)cyclopentane-1-carboxamide], the “Act. (%): activation rate” value came out at 52%.

Regarding `CON(C)C(=O)[C@@]1(Cc2ccc(F)c(-c3ncc(F)cn3)c2)CC[C@H](NS(C)(=O)=O)C1` [Example 48, (1R,3S)-1-(4-Fluoro-3-(5-fluoropyrimidin-2-yl)benzyl)-N-methoxy-N-methyl-3-(methylsulfonamido)cyclopentane-1-carboxamide], the “Act. (%): activation rate” value is given as 101%. As for `CON(C)C(=O)[C@@]1(Cc2ccc(Cl)c(-c3ncc(F)cn3)c2)CC[C@H](NS(C)(=O)=O)C1` [Example 49, (1R,3S)-1-(4-Chloro-3-(5-fluoropyrimidin-2-yl)benzyl)-N-methoxy-N-methyl-3-(methylsulfonamido)cyclopentane-1-carboxamide], the “Act. (%): activation rate” value is 88%. The value for `CON(C)C(=O)[C@@]1(Cc2ccc(F)c(-c3ncc(F)cn3)c2)CC[C@H](NS(=O)(=O)CF)C1` [Example 50, (1R,3S)-1-(4-Fluoro-3-(5-fluoropyrimidin-2-yl)benzyl)-3-((fluoromethyl)sulfonamido)-N-methoxy-N-methylcyclopentane-1-carboxamide] was 110%; that for `CON(C)C(=O)[C@@]1(Cc2ccc(F)c(-c3ncc(F)cn3)c2)CC[C@H](NS(=O)(=O)C(F)F)C1` [Example 51, (1R,3S)-3-((Difluoromethyl)sulfonamido)-1-(4-fluoro-3-(5-fluoropyrimidin-2-yl)benzyl)-N-methoxy-N-methylcyclopentane-1-carboxamide] was 98%; that for `CCS(=O)(=O)N[C@H]1CC[C@](Cc2ccc(F)c(-c3ncc(F)cn3)c2)(C(=O)N(C)OC)C1` [Example 52, (1R,3S)-3-(Ethylsulfonamido)-1-(4-fluoro-3-(5-fluoropyrimidin-2-yl)benzyl)-N-methoxy-N-methylcyclopentane-1-carboxamide] was 99%. The value for `C=CS(=O)(=O)N[C@H]1CC[C@](Cc2ccc(F)c(-c3ncc(F)cn3)c2)(C(=O)N(C)OC)C1` [Example 53, (1R,3S)-1-(4-Fluoro-3-(5-fluoropyrimidin-2-yl)benzyl)-N-methoxy-N-methyl-3-(vinylsulfonamido)cyclopentane-1-carboxamide] was 106%; that for `CON(C)C(=O)[C@@]1(Cc2ccc(F)c(-c3ncc(F)cn3)c2)CC[C@H](NS(=O)(=O)C2COC2)C1` [Example 54, (1R,3S)-1-(4-Fluoro-3-(5-fluoropyrimidin-2-yl)benzyl)-N-methoxy-N-methyl-3-(oxetane-3-sulfonamido)cyclopentane-1-carboxamide] was 90%; that for `CON(C)C(=O)[C@@]1(Cc2ccc(O)c(-c3ncc(F)cn3)c2)CC[C@H](NS(C)(=O)=O)C1` [Example 55, (1R,3S)-1-(3-(5-Fluoropyrimidin-2-yl)-4-hydroxybenzyl)-N-methoxy-N-methyl-3-(methylsulfonamido)cyclopentane-1-carboxamide] was 106%.

As to `COc1ccc(C[C@]2(C(=O)N(C)OC)CC[C@H](NS(C)(=O)=O)C2)cc1-c1ncc(F)cn1` [Example 56, (1R,3S)-1-(3-(5-Fluoropyrimidin-2-yl)-4-methoxybenzyl)-N-methoxy-N-methyl-3-(methylsulfonamido)cyclopentane-1-carboxamide], the “Act. (%): activation rate” value was 51%. For `CON(C)C(=O)[C@@]1(Cc2cccc(-c3ncc(F)cn3)c2)C[C@H](F)[C@H](NS(C)(=O)=O)C1` [Example 57, (1R,3S,4R)-3-Fluoro-1-(3-(5-fluoropyrimidin-2-yl)benzyl)-N-methoxy-N-methyl-4-(methylsulfonamido)cyclopentane-1-carboxamide] the value was 92%.

Consider `CON(C)C(=O)[C@@]1(Cc2cccc(-c3ncc(F)cn3)c2)C[C@H](F)[C@H](NS(=O)(=O)C(C)C)C1` [Example 58, (1R,3S,4R)-3-Fluoro-1-(3-(5-fluoropyrimidin-2-yl)benzyl)-N-methoxy-N-methyl-4-((1-methylethyl)sulfonamido)cyclopentane-1-carboxamide], for which the “Act. (%): activation rate” value came to 95%.

Turning to `CCS(=O)(=O)N[C@@H]1C[C@@](Cc2cccc(-c3ncc(F)cn3)c2)(C(=O)N(C)OC)C[C@@H]1F` [Example 59, (1R,3R,4S)-3-(Ethylsulfonamido)-4-fluoro-1-(3-(5-fluoropyrimidin-2-yl)benzyl)-N-methoxy-N-methylcyclopentane-1-carboxamide], the “Act. (%): activation rate” value came out at 98%.

Source of the values: patent publication US20260124201A1, “CYCLOPENTANE COMPOUND” (Kissei Pharmaceutical Co., Ltd., priority 2022, published 2026).
